We go through 16 compounds from the CheMixHub viscosity set.

Where “and” joins values, the source holds several entries; their conditions need not be identical. Equal entries are not always repeated. ± gives the uncertainty stated by the source.

Take `C1=CCCCC1`: for the setting “303.15 K, 101 kPa”, the viscosity is recorded as 0.573 ± 0.007 mPa·s.

Regarding `C=C(C)C(=O)OCC`, the viscosity runs as follows: (298.15 K, 101 kPa) 0.6412 ± 0.014 mPa·s; (303.15 K, 101 kPa) 0.5825 ± 0.013 mPa·s; (308.15 K, 101 kPa) 0.5323 ± 0.011 mPa·s; (313.15 K, 101 kPa) 0.4915 ± 0.01 mPa·s; (318.15 K, 101 kPa) 0.4586 ± 0.0098 mPa·s.

Take `CC(=O)[O-].CCCC[NH2+]CCO`: the viscosity is reported as 1412 ± 70 mPa·s (293.15 K, 101 kPa); 921.1 ± 41 mPa·s (298.15 K, 101 kPa); 616.9 ± 24 mPa·s (303.15 K, 101 kPa); 423.3 ± 15 mPa·s (308.15 K, 101 kPa); 297 ± 9.3 mPa·s (313.15 K, 101 kPa); 212.7 ± 6 mPa·s (318.15 K, 101 kPa). The compound also had a viscosity (323.15 K, 101 kPa) of 155.3 ± 4 mPa·s.

As for `CC(C)CC1CCCCC1`, the viscosity is, setting by setting: (293.15 K, 102 kPa) 1.17 ± 0.02 mPa·s; (303.15 K, 102 kPa) 1 ± 0.02 mPa·s; (313.15 K, 102 kPa) 0.871 ± 0.021 mPa·s; (323.15 K, 102 kPa) 0.765 ± 0.021 mPa·s.

Turning to `CC(C)O`, the viscosity runs as follows: (293.15 K, 101.32 kPa) 2.29 ± 0.018 mPa·s; (298.15 K, 101.3 kPa) 2.012 ± 0.049 mPa·s; (298.15 K, 101.33 kPa) 1.936 ± 0.013 mPa·s; (303 K, 101 kPa) 1.49 ± 0.14 mPa·s; (303.15 K, 100 kPa) 1.73 ± 0.17 mPa·s; (303.15 K, 101.33 kPa) 1.878 ± 0.019 mPa·s and 1.731 ± 0.011 mPa·s and 1.4 ± 0.024 mPa·s. Also, the viscosity is, setting by setting: (308.15 K, 100 kPa) 1.579 ± 0.048 mPa·s and 1.49 ± 0.15 mPa·s; (308.15 K, 101.3 kPa) 1.485 ± 0.037 mPa·s; (308.15 K, 101.33 kPa) 1.494 ± 0.01 mPa·s; (313 K, 101 kPa) 1.13 ± 0.11 mPa·s; (313.15 K, 101 kPa) 1.319 ± 0.033 mPa·s and 1.281 ± 0.06 mPa·s and 1.4 ± 0.03 mPa·s; (313.15 K, 101.3 kPa) 1.322 ± 0.011 mPa·s. Further, the viscosity reads like this: (313.15 K, 101.33 kPa) 1.427 ± 0.014 mPa·s and 1 ± 0.018 mPa·s; (318.15 K, 100 kPa) 1.171 ± 0.12 mPa·s; (318.15 K, 101 kPa) 1.228 ± 0.026 mPa·s; (323.15 K, 100 kPa) 0.995 ± 0.041 mPa·s; (323.15 K, 101 kPa) 1.063 ± 0.027 mPa·s and 1.083 ± 0.023 mPa·s; (323.15 K, 101.33 kPa) 1.105 ± 0.011 mPa·s and 1.056 ± 0.064 mPa·s.

As to `CC1CCCCC1`, the viscosity is 0.736 ± 0.017 mPa·s (2×) and 0.73 ± 0.09 mPa·s (293.15 K, 100 kPa); 0.7298 ± 0.033 mPa·s (293.15 K, 101.2 kPa); 0.69 ± 0.08 mPa·s (298.15 K, 100 kPa); 0.68 ± 0.006 mPa·s (298.15 K, 101 kPa); 0.6819 ± 0.031 mPa·s (298.15 K, 101.2 kPa); 0.65 ± 0.08 mPa·s and 0.639 ± 0.014 mPa·s (303.15 K, 100 kPa). The viscosity is recorded as 0.6416 ± 0.0044 mPa·s (303.15 K, 101 kPa); 0.6389 ± 0.029 mPa·s (303.15 K, 101.2 kPa); 0.6407 ± 0.0044 mPa·s (303.15 K, 101.3 kPa); 0.639 ± 0.0085 mPa·s (303.15 K, 101.33 kPa); 0.61 ± 0.07 mPa·s (308.15 K, 100 kPa); 0.568 ± 0.013 mPa·s (313.15 K, 100 kPa). Further, the viscosity was 0.5641 ± 0.025 mPa·s (313.15 K, 101.2 kPa); 0.54 ± 0.07 mPa·s (318.15 K, 100 kPa); 0.5314 ± 0.024 mPa·s (318.15 K, 101.2 kPa); 0.51 ± 0.06 mPa·s and 0.501 ± 0.011 mPa·s (323.15 K, 100 kPa).

Compound `CCC(C)CO` (configuration not stated) displayed a viscosity (298.15 K, 101 kPa) of 4.868 ± 0.045 mPa·s; a viscosity (303.15 K, 101.33 kPa) of 3.594 ± 0.048 mPa·s; a viscosity (313.15 K, 101.33 kPa) of 2.601 ± 0.035 mPa·s; a viscosity (323.15 K, 101.33 kPa) of 1.936 ± 0.026 mPa·s.

Turning to `CCCCC1CCCCC1`, for the setting “323.15 K, 100 kPa”, the viscosity stood at 0.835 ± 0.01 mPa·s.

`CCCCCCCCCBr` registered a viscosity (297.75 K, 101 kPa) of 1.922 ± 0.042 mPa·s; a viscosity (303.55 K, 101 kPa) of 1.721 ± 0.037 mPa·s; a viscosity (313.65 K, 101 kPa) of 1.458 ± 0.032 mPa·s.

In the case of `CCCCCCCCn1cc[n+](C)c1.O=S(=O)([N-]S(=O)(=O)C(F)(F)F)C(F)(F)F`, for the setting “308.15 K, 100 kPa”, the viscosity turned out to be 56.43 ± 2.3 mPa·s.

For `CCCCCN`, the viscosity by setting is: (293.15 K, 101.33 kPa) 0.656 ± 0.004 mPa·s; (298.15 K, 101.33 kPa) 0.609 ± 0.004 mPa·s; (303.15 K, 101 kPa) 0.5809 ± 0.005 mPa·s; (303.15 K, 101.33 kPa) 0.563 ± 0.003 mPa·s; (308.15 K, 101.33 kPa) 0.523 ± 0.003 mPa·s; (313.15 K, 101.33 kPa) 0.484 ± 0.003 mPa·s. The compound also came in with a viscosity (318.15 K, 101.33 kPa) of 0.457 ± 0.002 mPa·s.

On to `CCCCC[P+](CC)(CC)CC.O=S(=O)([N-]S(=O)(=O)C(F)(F)F)C(F)(F)F`, for which the viscosity runs as follows: (298.15 K, 101.3 kPa) 87.5 ± 18 mPa·s; (303.15 K, 101.3 kPa) 68.8 ± 14 mPa·s; (308.15 K, 101.3 kPa) 54.9 ± 11 mPa·s; (318.15 K, 101.3 kPa) 36.6 ± 7.3 mPa·s; (323.15 K, 101.3 kPa) 30.5 ± 6.1 mPa·s.

Consider `CCCCCl`, for which the viscosity by setting is: (298.15 K, 101 kPa) 0.428 mPa·s; (318.15 K, 101 kPa) 0.356 mPa·s; (323.15 K, 101 kPa) 0.34 mPa·s.

Turning to `CCCC[N+]1(C)CCCC1.N#C[S-]`, the viscosity (298.15 K, 101 kPa) is on record as 109.5 ± 23 mPa·s; the viscosity (308.15 K, 101 kPa) is given as 70.36 ± 6.5 mPa·s; the viscosity (318.15 K, 101 kPa) was determined as 47.79 ± 3 mPa·s.

Consider `CCCC[n+]1ccn(C)c1.N#C[S-]`, for which the viscosity was 57.4 ± 1.8 mPa·s and 62.81 ± 3.2 mPa·s (298.15 K, 100 kPa); 37.36 ± 2 mPa·s and 40.56 ± 2.1 mPa·s (308.15 K, 100 kPa); 25.8 ± 1.4 mPa·s (318.15 K, 100 kPa).

Turning to `CCCNCCC`, the viscosity is 0.504 ± 0.1 mPa·s and 0.5042 ± 0.15 mPa·s (2×) (298.15 K, 100 kPa); 0.503 ± 0.005 mPa·s (298.15 K, 101.33 kPa); 0.471 ± 0.1 mPa·s and 0.4706 ± 0.15 mPa·s (2×) (303.15 K, 100 kPa); 0.444 ± 0.1 mPa·s and 0.4444 ± 0.15 mPa·s (2×) (308.15 K, 100 kPa); 0.444 ± 0.005 mPa·s (308.15 K, 101.33 kPa); 0.386 ± 0.004 mPa·s (318.15 K, 101.33 kPa).
